In PubChem BioAssay AID1963835 (Molecular Pharmacology Branch, DTP, NCI, 2024) one finds IC50 and viability, T/C data, which are given here for eight compounds.

The experiment relates to 699152-130-R-J1-PDC complex spheroid viability. Kind of experiment: Anticancer human tumor 699152-130-R-J1-PDC patient-derived pancreatic carcinoma cell line growth inhibition [POLQ]. The conditions noted are these: for viability, T/C: stronger effect = lower value. The method, then:
Multicellular complex tumor spheroid response to Polymerase (POL) inhibitors (novobiocin, ART-558, RP6685) in combination with a variety of drugs and investigational agents in selected tumor cell lines
The POL inhibitors (novobiocin, ART-558, and RP6685) were evaluated both individually and in combination with standard of care and investigational anticancer small molecules within a complex spheroid model of solid tumors. . Complex spheroids include a stromal component modeled by human endothelial cells (HUVEC) and fibroblasts modeled by human mesenchymal stem cells (MSCs). The concentration ranges selected for each drug and investigational agent were based upon clinically achievable concentrations if the clinical Cmax of the agent was known.
Compounds. The drugs and investigational agents: novobiocin (NSC847541), ART-558 (NSC835418), RP-6685 (NSC848927), peposertib (NSC802822), ceralasertib (NSC780249), elimusertib (NSC800525), camonsertib (NSC841442), AZD-1390 (NSC803789), olaparib (NSC753686), talazoparib (NSC767125), rucaparib (NSC756644), sotorasib (NSC818433), MRTX-1133 (NSC836407), SN-38 (NSC673596), topotecan (NSC609699), epotoside (NSC141540), doxorubicin (NSC123127), gemcitabine (NSC613327), 5-fluorouracil (NSC19893), paclitaxel (NSC125973), vemurafenib (NSC761431), MSA-2 (NSC828583), SN-011 (NSC837082), adavosertib (NSC754352), prexasertib (NSC758257), carboplatin (NSC241240) and oxaliplatin (NSC266046), were obtained from the National Cancer Institute (NCI) Developmental Therapeutics Program Chemical Repository (21). The FDA-approved anticancer drug set is available from the Developmental Therapeutics Program at https://dtp.cancer.gov/organization/dscb/obtaining/. […] The stock solutions were prepared in dimethyl sulfoxide (DMSO, Sigma-Aldrich, St. Louis, MO, cat. D2650), except for the platinum compounds which were prepared in saline (Quality Biological, Gaithersburg, MD, cat. 114-055-101), at 800-fold the tested concentration and stored at -70 degrees C prior to their use. All drugs and investigational agents were tested over a range starting from a high concentration at or near the clinical Cmax and decreasing in half-log increments. If the clinical Cmax for an agent had not been determined, the highest concentration tested was 10 microM, except for SN-38, which was tested at a high concentration of 1 microM.
Cell Culture. All cells were maintained in an incubator at 37 degrees C and 5% CO2 with 95% humidity. The PDC lines were cultured according to standard operating procedures established by the NCI PDMR (https://pdmr.cancer.gov). Table 3 of the manuscript, lists the cell lines along with the number of the three cell types plated to form the mct-spheroids and media for tumor cell growth. After thawing, all PDC lines, except 997537-175-T-J1-PDC and 415267-285-R-J2-PDC, were cultured in Matrigel-coated flasks prepared with a working solution of 1X Ham's F-12 nutrient mix, without supplementation (Thermo Fisher Scientific, cat. 11765054), 100 U/mL penicillin-streptomycin (Thermo Fisher Scientific, cat. 15140122), and 2.5% Matrigel (Corning Inc., Corning, NY, cat. 354248) for the first three passages. The two PDC lines 997537-175-T-J1-PDC and 415267-285-R-J2-PDC were cultured on uncoated flasks. The 857933-349-R-J2-PDC line was cultured in 6C/Colon 1B media containing advanced DMEM/F-12 (Thermo Fisher Scientific, cat. 12634028), 10 mM HEPES (Thermo Fisher Scientific, cat. 15630080), 1X GlutaMAX supplement (Thermo Fisher Scientific, cat. 35050061), 0.1 mg/mL primocin (InvivoGen, San Diego, CA, cat. ant-pm-2), 10% defined fetal bovine serum, heat inactivated (HyClone Laboratories Inc., Logan, UT, cat. SH30070.03HI), 50% L-WRN conditioned media (ATCC, cat. CRL-3276), 1.25 mM N-Acetyl-L-cysteine (Sigma-Aldrich, cat. A9165), 10 mM nicotinamide (Sigma-Aldrich, cat. N0636), 1X B-27 supplement (Thermo Fisher Scientific, cat. 17504044), 1X N-2 supplement (Thermo Fisher Scientific, cat. […]

One may read the IC50 as the concentration that inhibits the measured activity by half. The viability, T/C is the result in the treated group divided by that in the control group, in per cent.

Where “and” joins values, the source holds several entries; their conditions need not be identical. Equal values may be shown once.
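Also: spheroids exposed to agents for 7 days before viability reading.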
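For viability, T/C in this document: percent of DMSO vehicle control viability so 100% = vehicle and 0% = no viable signal.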

As for `COc1cccc(OCCCN)c1-c1cc(Nc2cnc(C#N)cn2)n[nH]1` + COC1C(OC(N)=O)C(O)C(Oc2ccc3c(O)c(NC(=O)c4ccc(O)c(CC=C(C)C)c4)c(=O)oc3c2C)OC1(C)C, the IC50 by setting is: (curve of first compound, second compound 0.0316 µM) 256 nM; (curve of first compound, second compound 0.1 µM) 524 nM; (curve of first compound, second compound 0.316 µM) 495 nM; (curve of first compound, second compound 1 µM) 297 nM; (curve of first compound, second compound 3.16 µM) above 1000 nM; (curve of first compound, second compound 10 µM) above 1000 nM. Also, the viability, T/C (second compound 0.0316 µM, first compound 0.00316 µM) was 92.4%; the viability, T/C (second compound 0.0316 µM, first compound 0.01 µM) is 91.4%; the viability, T/C (second compound 0.0316 µM, first compound 0.0316 µM) was 57.9%; the viability, T/C (second compound 0.0316 µM, first compound 0.1 µM) was 63%; the viability, T/C (second compound 0.0316 µM, first compound 0.316 µM) was 49.7%; the viability, T/C (second compound 0.0316 µM, first compound 1 µM) is 43%. Besides, the viability, T/C was 96.8% (second compound 0.1 µM, first compound 0.00316 µM); 89.2% (second compound 0.1 µM, first compound 0.01 µM); 70.3% (second compound 0.1 µM, first compound 0.0316 µM); 58.1% (second compound 0.1 µM, first compound 0.1 µM); 50.8% (second compound 0.1 µM, first compound 0.316 µM); 48.6% (second compound 0.1 µM, first compound 1 µM). Moreover, the viability, T/C reads like this: (second compound 0.316 µM, first compound 0.00316 µM) 107%; (second compound 0.316 µM, first compound 0.01 µM) 83.1%; (second compound 0.316 µM, first compound 0.0316 µM) 67.3%; (second compound 0.316 µM, first compound 0.1 µM) 55.2%; (second compound 0.316 µM, first compound 0.316 µM) 55%; (second compound 0.316 µM, first compound 1 µM) 46.1%. In addition, the viability, T/C is, setting by setting: (second compound 1 µM, first compound 0.00316 µM) 93.7%; (second compound 1 µM, first compound 0.01 µM) 83.2%; (second compound 1 µM, first compound 0.0316 µM) 69.2%; (second compound 1 µM, first compound 0.1 µM) 52.3%; (second compound 1 µM, first compound 0.316 µM) 48.4%; (second compound 1 µM, first compound 1 µM) 50.8%. Further, the viability, T/C was 107% (second compound 3.16 µM, first compound 0.00316 µM); 78.2% (second compound 3.16 µM, first compound 0.01 µM); 60.7% (second compound 3.16 µM, first compound 0.0316 µM); 54.8% (second compound 3.16 µM, first compound 0.1 µM); 57.5% (second compound 3.16 µM, first compound 0.316 µM); 48.8% (second compound 3.16 µM, first compound 1 µM). The viability, T/C (second compound 10 µM, first compound 0.00316 µM) was 94.8%; the viability, T/C (second compound 10 µM, first compound 0.01 µM) is 90.8%; the viability, T/C (second compound 10 µM, first compound 0.0316 µM) is 62.3%; the viability, T/C (second compound 10 µM, first compound 0.1 µM) was 60.3%; the viability, T/C (second compound 10 µM, first compound 0.316 µM) was 55%; the viability, T/C (second compound 10 µM, first compound 1 µM) is 46.3%.
On to `C=CCn1c(=O)c2cnc(Nc3ccc(N4CCN(C)CC4)cc3)nc2n1-c1cccc(C(C)(C)O)n1`, for which the viability, T/C (compound 0.00316 µM) is 103% and 97% and 105%; the viability, T/C (compound 0.01 µM) is 104% and 91.6% and 100%; the viability, T/C (compound 0.0316 µM) is 88.6% and 89.3% and 105%; the viability, T/C (compound 0.1 µM) is 96.8% and 92.2% and 110%; the viability, T/C (compound 0.316 µM) is 90.3% and 78.7% and 84.2%; the viability, T/C (compound 1 µM) was 74.6% and 69.8% and 72.5%. In addition, the IC50 (curve of compound) was above 1000 nM.
For `COc1cc2cc(C(=O)CCC(=O)O)sc2cc1OC`, the viability, T/C runs as follows: (compound 0.0316 µM) 101% (2×) and 90.4%; (compound 0.1 µM) 98.7% and 97.3% and 103%; (compound 0.316 µM) 94.8% and 103% and 101%; (compound 1 µM) 102% and 96.4% and 105%; (compound 3.16 µM) 111% (2×) and 91.5%; (compound 10 µM) 99.7% and 93.3% and 99.9%. Also, the 50% inhibitory concentration (IC50) (curve of compound) is above 10000 nM.
With `CC[C@@]1(O)C(=O)OCc2c1cc1n(c2=O)Cc2cc3c(CN(C)C)c(O)ccc3nc2-1`, the viability, T/C is 93.1% and 110% and 102% (compound 0.000316 µM); 97.6% and 90% and 108% (compound 0.001 µM); 98.8% and 105% and 99.5% (compound 0.00316 µM); 94.2% and 111% and 93.4% (compound 0.01 µM); 72.9% and 81.9% and 79.4% (compound 0.0316 µM); 59.6% and 68.9% and 54.6% (compound 0.1 µM). The IC50 (curve of compound) was above 100 nM.
For the compound `COc1cccc(OCCCN)c1-c1cc(Nc2cnc(C#N)cn2)n[nH]1`, the viability, T/C reads like this: (compound 0.00316 µM) 94% and 98.1% and 84.3%; (compound 0.01 µM) 84.5% and 83.7% and 91.9%; (compound 0.0316 µM) 66% and 60% and 74.3%; (compound 0.1 µM) 56.1% and 57.8% and 62.7%; (compound 0.316 µM) 55.3% and 56.8% and 60.6%; (compound 1 µM) 50.4% and 52.5% and 58.4%. For the same compound, the IC50 (curve of compound) is above 1000 nM.
Consider `CNCc1ccc(-c2[nH]c3cc(F)cc4c3c2CCNC4=O)cc1`, for which the viability, T/C is, setting by setting: (compound 0.0316 µM) 96.2% and 95.6% and 99%; (compound 0.1 µM) 99.8% and 91.1% and 101%; (compound 0.316 µM) 118% and 90.3% and 99.8%; (compound 1 µM) 106% and 108% and 112%; (compound 3.16 µM) 119% and 117% and 138%; (compound 10 µM) 111% and 109% and 130%. Besides, the 50% inhibitory concentration (IC50) (curve of compound) was above 10000 nM.
Regarding `CCCS(=O)(=O)Nc1ccc(F)c(C(=O)c2c[nH]c3ncc(-c4ccc(Cl)cc4)cc23)c1F`, the viability, T/C (compound 0.0316 µM) is 109% and 96.3% and 112%; the viability, T/C (compound 0.1 µM) is 112% and 102% and 110%; the viability, T/C (compound 0.316 µM) is 129% and 120% and 116%; the viability, T/C (compound 1 µM) is 158% and 156% and 128%; the viability, T/C (compound 3.16 µM) was 187% and 182% and 192%; the viability, T/C (compound 10 µM) was 34.7% and 43.6% and 56.4%. Further, the IC50 (curve of compound) is 8440 nM and 9190 nM and > 10000 nM.
On to `Cn1ncnc1[C@H]1c2n[nH]c(=O)c3cc(F)cc(c23)N[C@@H]1c1ccc(F)cc1`, for which the viability, T/C reads like this: (compound 0.000316 µM) 94.3% and 91% and 102%; (compound 0.001 µM) 88.8% and 78.8% and 93%; (compound 0.00316 µM) 95% and 104% and 108%; (compound 0.01 µM) 80.8% and 104% and 106%; (compound 0.0316 µM) 83.2% and 89.8% and 97.3%; (compound 0.1 µM) 86.5% and 95.5% and 92.5%. In addition, the IC50 (curve of compound) is above 100 nM.
